According to paper PMC7516017, “Organoids to Study Intestinal Nutrient Transport, Drug Uptake and Metabolism – Update to the Human Model and Expansion of Applications” (Frontiers in Bioengineering and Biotechnology, 2020):

Tests used:
[1] = system: murine large intestinal organoids; test: Acylcarnitine profiles after butyrate (LC-MS/MS); format: cell-based, mouse; conditions: 1mM butyrate with 100µM carnitine, measured 0, 5, 10, 30, 60 min
Description: (§1) 1.9. Imaging of intracellular calcium concentrations
(§2) Concentrations of substances used were: 100µM ATP (Sigma), 50mM glucose, and 50mM fructose. Using a Leica DMI6000 B inverted […]
(§3) analyzed using the Leica Application Suite Advanced Fluorescence software. Imaging of intracellular calcium concentrations was performed in human duodenal organoids.
(§4) Of note, the B27 supplement contains a n/a […]
(§5) incubated for the indicated times. Controls were not pulsed with insulin. 2. Addition of butyrate: murine colonic organoids were grown for 6 days in IC. 100µM carnitine and 1mM butyrate were added and organoids were incubated for the indicated times. Time point zero was sampled immediately after addition of butyrate and carnitine. Control organoids were not exposed to butyrate. 3. Addition of d13- […]
(§6) organoids were incubated for the indicated times. Controls were exposed to carnitine and BSA without […]
(§7) 5min) to remove remaining matrigel.
(§8) Comfort; Eppendorf, Hamburg, Germany). The samples were dried in nitrogen gas and reconstituted […]
(§9) To determine amino acid and
(§10) Analytics, Zwingen, Switzerland) was used. Data analysis was performed using Analyst 1.7® and SCIEX OS 1.4 software (Sciex).

[2] = system: murine small intestinal organoids; test: Amino acid and acylcarnitine levels after insulin (LC-MS/MS); format: cell-based, mouse; conditions: 1 μM insulin, measured after 0, 30, 60, 120 min
Description: For live-cell imaging of intracellular calcium concentrations, organoids were loaded with 7μM Fura-2
AM (Life Technologies) in HEPES-saline buffer as used for imaging of intracellular acidification for
20 min at 37 °C and then washed 5 times with PBS (pH 7.4; 37 °C). Concentrations of substances used were: 100µM ATP (Sigma), 50mM glucose, and 50mM fructose. Using a Leica DMI6000 B inverted
fluorescence microscope (Leica Microsystems) at 20× magnification, images were captured every 5-
10s. The fluorescence ratio F(λex340nm)/ F(λex380nm) was calculated and imaging data were
Quantification of amino acid and acylcarnitine concentrations using targeted LC-MS/MS
Metabolite analyses were performed with samples from three different experiments: 1.
incubated for the indicated times. […] Addition of butyrate: murine colonic organoids were grown for 6 days in IC. 100µM carnitine and 1mM butyrate were added and organoids were incubated for the indicated times. […]
palmitate. Medium from untreated organoids was measured to verify organoids as source of […]
acylcarnitine concentrations, quantitative LC -MS/MS was applied as described previously [6, 7]. […]

human duodenal organoids = test: Live-cell imaging of intracellular calcium (Fura-2-AM); format: cell-based; conditions: Fura-2-AM 7μM, ratio F(λex340nm)/F(λex380nm), 100µM ATP
Description: as §1, §2, §3, §4, §5, §6, §7, §8, §9, §10

## CCCC(=O)O [butyrate]
[1]
  acetylcarnitine, butyrylcarnitine and palmitoylcarnitine concentrations: increasing to maximal concentrations 60 min after butyrate addition

## insulin
[2]
  tau-methylhistidine and propionylcarnitine (C3) after insulin stimulation: diminished with lowest levels observed 60 min after insulin stimulation

## Nc1ncnc2c1ncn2[C@@H]1O[C@H](COP(=O)(O)OP(=O)(O)OP(=O)(O)O)[C@@H](O)[C@H]1O [ATP]
Human duodenal organoids
  intracellular calcium response: increases in intracellular calcium
